Data as given in US10165775B2, “Pesticidal compositions and processes related thereto” (Dow AgroSciences LLC, priority 2011, dated 2019).

Assays:
[1] = test system: Green Peach Aphid (GPA) (Myrzus persicae) (MYZUPE); experiment: Bioassay on green peach aphid (GPA), foliar spray on cabbage seedlings; assay type: in vivo; conditions: Myzus persicae, 72 h, 200 ppm foliar spray, graded after three days, Abbott corrected % control, read-out: MYZUPE % Ctrl @ 200 ppm
Protocol: Certain molecules disclosed in this document were tested against GPA using procedures described in the following example. In the reporting of the results, “Table 3: GPA (MYZUPE) and sweetpotato whitefly-crawler (BEMITA) Rating Table” was used (See Table Section).
Cabbage seedlings grown in 3-inch pots, with 2-3 small (3-5 cm) true leaves, were used as test substrate. The seedlings were infested with 20-50 GPA (wingless adult and nymph stages) one day prior to chemical application. Four pots with individual seedlings were used for each treatment. Test compounds (2 mg) were dissolved in 2 mL of acetone/methanol (1:1) solvent, forming stock solutions of 1000 ppm test compound. The stock solutions were diluted 5× with 0.025% Tween 20 in H2O to obtain the solution at 200 ppm test compound. A hand-held aspirator-type sprayer was used for spraying a solution to both sides of […] leaves until runoff. Reference plants (solvent check) were sprayed with the diluent only containing 20% by volume of acetone/methanol (1:1) solvent. Treated plants were held in a holding room for three days at approximately 25° C. and ambient relative humidity (RH) prior to grading. Evaluation was conducted by counting the number of live aphids per plant under a microscope. Percent Control was measured by using Abbott's correction formula (W. S. Abbott. “A Method of Computing the Effectiveness of an Insecticide” J. Econ. Entomol. 18 (1925), pp. 265-267) as follows. Corrected % Control=100*(X−Y)/X • where • X=No. of live aphids on solvent check plants and • Y=No. of live aphids on treated plants
Biological Data for GPA (MYZUPE) and sweetpotato whitefly-crawler (BEMITA)” (See Table Section).

[2] = test system: Sweetpotato whitefly-crawler (Bemisia tabaci) (BEMITA); experiment: Insecticidal test for sweetpotato whitefly-crawler in foliar spray assay on cotton plants; assay type: in vivo; conditions: 200 ppm foliar spray, graded after 8-9 days, Abbott corrected % control, read-out: BEMITA % Ctrl @ 200 ppm
Protocol: Cotton plants grown in 3-inch pots, with 1 small (3-5 cm) true leaf, were used as test substrate. The plants were placed in a room with whitefly adults. Adults were allowed to deposit eggs for 2-3 days. After a 2-3 day egg-laying period, plants were taken from the adult whitefly room. Adults were blown off leaves using a hand-held Devilbiss sprayer (23 psi). Plants with egg infestation (100-300 eggs per plant) were placed in a holding room for 5-6 days at 82° F. and 50% RH for egg hatch and crawler stage to develop. Four cotton plants were used for each treatment. Compounds (2 mg) were dissolved in 1 mL of acetone solvent, forming stock solutions of 2000 ppm. The stock solutions were diluted 10× with 0.025% Tween 20 in H2O to obtain a test solution at 200 ppm. A hand-held Devilbiss sprayer was used for spraying a solution to both sides of cotton leaf until runoff. Reference plants (solvent check) were sprayed with the diluent only. Treated plants were held in a holding room for 8-9 days at approximately 82° F. and 50% RH prior to grading. Evaluation was conducted by counting the number of live nymphs per plant under a microscope. Insecticidal activity was measured by using Abbott's correction formula and presented in “Table 4. Biological Data for GPA (MYZUPE) and sweetpotato whitefly-crawler (BEMITA)” (see column “BEMITA”): Corrected % Control=100*(X−Y)/X • where X=No. of live nymphs on solvent check plants • Y=No. of live nymphs on treated plants Pesticidally Acceptable Acid Addition Salts, Salt Derivatives, Solvates, Ester Derivatives, Polymorphs, Isotopes and Radionuclides

melting point [°C]	SMILES	pest or weed control at 200 ppm [1] [%]	pest or weed control at 200 ppm [2] [%]
89 to 90	C#CCN(C(=O)C(C)C)c1cn(-c2cccnc2)nc1C [Compound 600]	80 to 100	0 to 80
98 to 99	C#CCN(C(=O)C(C)C)c1cn(-c2cccnc2)nc1Cl [Compound 610]	80 to 100	80 to 100
–	C#CCN(C(=O)C(SC)C(=O)CSC)c1cn(-c2cccnc2)nc1Cl (stereo not drawn) [Compound 622]	80 to 100	80 to 100
–	C#CCN(C(=O)C(C)SC)c1cn(-c2cccnc2)nc1Cl (stereo not drawn) [Compound 611, N-(3-chloro-1-(pyridin-3-yl)-1H-pyrazol-4-yl)-2-(methylthio)-N-(prop-2-yn-1-yl)propanamide]	80 to 100	80 to 100
140 to 142	CC(C)C(=O)Nc1cn(-c2cncc(F)c2)nc1C=O [Compound 560, N-(1-(5-fluoropyridin-3-yl)-3-formyl-1H-pyrazol-4-yl)isobutyramide]	–	–
–	C#CCN(C(=O)C[S+](C)[O-])c1cn(-c2cccnc2)nc1Cl (stereo not drawn) [Compound 620]	80 to 100	80 to 100
99 to 100	C#CCN(C(=O)C(C)C)c1cn(-c2cncc(F)c2)nc1C [Compound 603]	80 to 100	80 to 100
–	C#CCN(C(=O)OC(C)(C)C)c1cn(-c2cccnc2)nc1Cl [Compound 606, tert-butyl (3-chloro-1-(pyridin-3-yl)-1H-pyrazol-4-yl)(prop-2-yn-1-yl)carbamate]	80 to 100	80 to 100
–	C#CCN(C(=O)CS(C)(=O)=O)c1cn(-c2cccnc2)nc1Cl [Compound 621]	80 to 100	80 to 100
109 to 112	C#CCN(C(=O)CC(SC)C1CC1)c1cn(-c2cccnc2)nc1Cl (stereo not drawn) [Compound 619]	80 to 100	80 to 100
–	C#CCN(C(=O)CCSC)c1cn(-c2cccnc2)nc1C [Compound 598]	80 to 100	0 to 80
–	C#CCN(C(=O)CCC(F)(F)F)c1cn(-c2cncc(F)c2)nc1C [Compound 604]	80 to 100	80 to 100
–	C#CCN(C(=O)CCC(F)(F)F)c1cn(-c2cccnc2)nc1C [Compound 597]	80 to 100	0 to 80
–	C#CCN(C(=O)CCSCCC(F)(F)F)c1cn(-c2cccnc2)nc1Cl [Compound 626]	80 to 100	80 to 100
172 to 177	CC(C)C(=O)Nc1cn(-c2cncc(F)c2)nc1CCl [Compound 561, N-(3-(chloromethyl)-1-(5-fluoropyridin-3-yl)-1H-pyrazol-4-yl)isobutyramide]	–	–
156.5 to 158	CC(C)(C)OC(=O)Nc1cn(-c2cncc(F)c2)nc1C1CC1 [Compound 434, tert-butyl (3-cyclopropyl-1-(5-fluoropyridin-3-yl)-1H-pyrazol-4-yl)carbamate]	–	–
144 to 146	CC(C)C(=O)Nc1cn(-c2cncc(F)c2)nc1CO [Compound 435, N-(1-(5-fluoropyridin-3-yl)-3-(hydroxymethyl)-1H-pyrazol-4-yl)isobutyramide]	–	–
–	C#CCN(C(=O)CN(C)S(C)(=O)=O)c1cn(-c2cccnc2)nc1Cl [Compound 623, N-(3-chloro-1-(pyridin-3-yl)-1H-pyrazol-4-yl)-2-(N-methylmethylsulfonamido)-N-(prop-2-yn-1-yl)acetamide]	80 to 100	80 to 100

melting point [°C]	SMILES	pest or weed control at 200 ppm [1] [%]	pest or weed control at 200 ppm [2] [%]
68 to 70	C#CCN(C(=O)CCSC(c1ccccc1)(c1ccccc1)c1ccccc1)c1cn(-c2cccnc2)nc1Cl [Compound 624]	–	–
65 to 68	C#CCN(C(=O)CSC)c1cn(-c2cccnc2)nc1Cl [Compound 612]	80 to 100	80 to 100
190 to 193	CSCC(C)(C)C(=O)N(C)c1cc(-c2cccnc2)nn1C [Compound 3]	–	–
73 to 75	C#CCN(C(=O)OC(C)(C)C)c1cn(-c2cccnc2)nc1C [Compound 596]	80 to 100	80 to 100
–	C#CCN(C(=O)CCC(F)(F)F)c1cn(-c2cccnc2)nc1Cl [Compound 609]	80 to 100	80 to 100
–	C#CCN(C(=O)C(C)CSC)c1cn(-c2cccnc2)nc1C (stereo not drawn) [Compound 599]	80 to 100	0 to 80
131.5 to 133	Cc1nn(-c2cncc(F)c2)cc1NC(=O)OC(C)(C)C [Compound 111, tert-butyl 1-(5-fluoropyridin-3-yl)-3-methyl-1H-pyrazol-4-ylcarbamate]	–	–
–	C#CCN(C(=O)CCSCCC(F)(F)F)c1cn(-c2cccnc2)nc1C [Compound 627, N-(3-methyl-1-(pyridin-3-yl)-1H-pyrazol-4-yl)-N-(prop-2-yn-1-yl)-3-((3,3,3-trifluoropropyl)thio)propanamide]	80 to 100	80 to 100
–	C#CCN(C(=O)C(C)CSC)c1cn(-c2cncc(F)c2)nc1C (stereo not drawn) [Compound 602]	80 to 100	80 to 100
–	C#CCN(C(=O)CC(SC)C(F)(F)F)c1cn(-c2cccnc2)nc1Cl (stereo not drawn) [Compound 613, N-(3-chloro-1-(pyridin-3-yl)-1H-pyrazol-4-yl)-4,4,4-trifluoro-3-(methylthio)-N-(prop-2-yn-1-yl)butanamide]	80 to 100	80 to 100
81 to 82	C#CCN(C(=O)OC(C)(C)C)c1cn(-c2cncc(F)c2)nc1C [Compound 601, tert-butyl 1-(5-fluoropyridin-3-yl)-3-methyl-1H-pyrazol-4-yl(prop-2-ynyl)carbamate]	80 to 100	80 to 100
–	C#CCN(C(=O)C(C)CSC)c1cn(-c2cccnc2)nc1Cl (stereo not drawn) [Compound 608]	80 to 100	80 to 100
–	C#CCN(C(=O)CCC(F)(F)C(F)(F)F)c1cn(-c2cccnc2)nc1Cl [Compound 615]	0 to 80	80 to 100
–	C#CCN(C(=O)CCSC)c1cn(-c2cncc(F)c2)nc1C [Compound 605, N-(1-(5-fluoropyridin-3-yl)-3-methyl-1H-pyrazol-4-yl)-3-(methylthio)-N-(prop-2-ynyl)propanamide]	80 to 100	80 to 100
–	C#CCN(C(=O)CCC(C)(F)F)c1cn(-c2cccnc2)nc1Cl [Compound 614]	80 to 100	80 to 100
–	C#CCN(C(=O)CCSC)c1cn(-c2cccnc2)nc1Cl [Compound 607]	80 to 100	80 to 100
83 to 86	CCN(C(=O)CC(OC)(C(F)(F)F)C(F)(F)F)c1cn(-c2cccnc2)nc1C [Compound 276, N-ethyl-4,4,4-trifluoro-3-methoxy-N-(3-methyl-1-(pyridin-3-yl)-1H-pyrazol-4-yl)-3-(trifluoromethyl)butanamide]	–	–
